Assay results reported in patent US20220031596A1, “ANTI-AGING AGENT AND ANTI-AGING METHOD” (priority 2018, published 2022).

Experiments:
Assay type in all cases: in vivo, human
[1] = system: ghrelin concentration in the plasma; test: Evaluation of ghrelin secretion promoting effect (plasma ghrelin, 24-week oral ingestion); conditions: for ghrelin concentration in the plasma, 0 weeks (before ingestion) / ghrelin concentration in the plasma, 24 weeks (after ingestion) / ghrelin concentration in the plasma, Change rate (24 weeks - 0 weeks): High Dose Group (200 mg/daily, oral), mean±SD; for ghrelin concentration in the plasma, 0 weeks (before ingestion): baseline
Protocol: In order to confirm a change in the ghrelin quantity before and after ingestion of the nicotinamide mononucleotide, a test was conducted on healthy males and females aged 50 to 70 years.
As a sample of Working Example 3, a capsule formulation containing the nicotinamide mononucleotide and starch (200 mg of the nicotinamide mononucleotide in 4 capsules) (manufactured by SHINKOWA PHARMACEUTICAL Co., Ltd.) was used.
(§1) Each group consisting of five healthy males and females aged 50 to 70 years in an unbiased age group ingested the above capsule formulation once a day by 4 capsules for 24 weeks (total 10 subjects, 200 mg/daily ingestion). In order to conduct appropriate evaluations, those who had been regularly using medical products for chronic diseases, those who had been consuming healthy foods that may affect clinical research, and those who were currently participating in other clinical researches or clinical trials or had participated in other clinical researches or clinical trials within the last three months were excluded from the subject for the evaluation. The capsule formulations were ingested at 10 am (between meals and fasting state) together with water or lukewarm water (oral administration).
Measurement of the ghrelin quantity in the plasma was conducted by requesting the measurement to an external public organization according to a usual method. FIGS. 6a to 6c indicate transitions of the ghrelin concentration (pg/ml) in the plasma for 24 weeks. FIG. 6a represents the transitions of the whole subjects; FIG. 6b represents the transitions of the male subjects; FIG. 6c represents the transitions of the female subjects. Further, FIGS. 7a to 7c indicate change rates (%) of the blood ghrelin concentration up to 24 weeks when the nicotinamide mononucleotide was orally administered to the subjects for 24 weeks. FIG. 7a represents the change rates of the whole subjects; FIG. 7b represents the change rates of the male subjects; FIG. 7c represents the change rates of the female subjects. Further, Table 3 indicates the numerical values of the ghrelin concentration (pg/ml) in the plasma before the ingestion of the nicotinamide mononucleotide (0 weeks) and after the ingestion of the nicotinamide mononucleotide (24 weeks). Note that the numerical values represent mean values±standard deviation.

[2] = system: free thyroxine concentration in the plasma; test: Evaluation of free thyroxine (T4) secretion promoting effect (plasma free thyroxine, 24-week oral ingestion); conditions: for free thyroxine concentration in the plasma, 0 weeks (before ingestion) / free thyroxine concentration in the plasma, 24 weeks (after ingestion) / free thyroxine concentration in the plasma, Change rate (24 weeks - 0 weeks): High Dose Group (200 mg/daily, oral), mean±SD; for free thyroxine concentration in the plasma, 0 weeks (before ingestion): baseline
Protocol: In order to confirm a change in the free thyroxine quantity before and after ingestion of the nicotinamide mononucleotide, a test was conducted on healthy males and females aged 50 to 70 years.
As a sample of Working Example 5, a capsule formulation containing the nicotinamide mononucleotide and starch (200 mg of the nicotinamide mononucleotide in 4 capsules) (manufactured by SHINKOWA PHARMACEUTICAL Co., Ltd.) was used.
as §1, with “above high dose” for “above”
Measurement of the free thyroxine quantity in the plasma was conducted by requesting the measurement to an external public organization according to a usual method. FIGS. 10a to 10c indicate transitions of the free thyroxine concentration (ng/dl) in the plasma for 24 weeks. FIG. 10a represents the transitions of the whole subjects; FIG. 10b represents the transitions of the male subjects; FIG. 10c represents the transitions of the female subjects. Further, FIGS. 11a to 11c indicate change rates (%) of the blood free thyroxine concentration up to 24 weeks when the nicotinamide mononucleotide was orally administered to the subjects for 24 weeks. FIG. 11a represents the change rates of the whole subjects; FIG. 11b represents the change rates of the male subjects; FIG. 11c represents the change rates of the female subjects. Further, Table 5 indicates the numerical values of the free thyroxine concentration (ng/dl) in the plasma before the ingestion of the nicotinamide mononucleotide (0 weeks) and after the ingestion of the nicotinamide mononucleotide (24 weeks). Note that the numerical values represent mean values±standard deviation.

[3] = system: testosterone concentration in the plasma; test: Evaluation of testosterone secretion promoting effect (plasma testosterone, 24-week oral ingestion); conditions: for testosterone concentration in the plasma, 0 weeks (before ingestion) / testosterone concentration in the plasma, 24 weeks (after ingestion) / testosterone concentration in the plasma, Change rate (24 weeks - 0 weeks): High Dose Group (200 mg/daily, oral), mean±SD; for testosterone concentration in the plasma, 0 weeks (before ingestion): baseline
Protocol: In order to confirm a change in the testosterone quantity before and after ingestion of the nicotinamide mononucleotide, a test was conducted on healthy males and females aged 50 to 70 years.
As a sample of Working Example 8, a capsule formulation containing the nicotinamide mononucleotide and starch (200 mg of the nicotinamide mononucleotide in 4 capsules) (manufactured by SHINKOWA PHARMACEUTICAL Co., Ltd.) was used.
as §1, with “above high dose” for “above”
Measurement of the testosterone quantity in the plasma was conducted by requesting the measurement to an external public organization according to a usual method. FIGS. 16a to 16c indicate transitions of the testosterone concentration (ng/ml) in the plasma for 24 weeks. FIG. 16a represents the transitions of the whole subjects; FIG. 16b represents the transitions of the male subjects; FIG. 16c represents the transitions of the female subjects. Further, FIGS. 17a to 17c indicate change rates (%) of the blood testosterone concentration up to 24 weeks when the nicotinamide mononucleotide was orally administered to the subjects for 24 weeks. FIG. 17a represents the change rates of the whole subjects; FIG. 17b represents the change rates of the male subjects; FIG. 17c represents the change rates of the female subjects. Further, Table 8 indicates the numerical values of the testosterone concentration (ng/ml) in the plasma before the ingestion of the nicotinamide mononucleotide (0 weeks) and after the ingestion of the nicotinamide mononucleotide (24 weeks). Note that the numerical values represent mean values±standard deviation.

## NC(=O)c1ccc[n+]([C@@H]2O[C@H](COP(=O)([O-])O)[C@@H](O)[C@H]2O)c1 [nicotinamide mononucleotide]
[1]; Female
  ghrelin concentration in the plasma, 0 weeks (before ingestion): 260 ± 111 pg/mL
  ghrelin concentration in the plasma, 24 weeks (after ingestion): 990 ± 834 pg/mL
  ghrelin concentration in the plasma, Change rate (24 weeks - 0 weeks): 730 ± 847 pg/mL
[1]; Male
  ghrelin concentration in the plasma, 0 weeks (before ingestion): 111 ± 91 pg/mL
  ghrelin concentration in the plasma, 24 weeks (after ingestion): 152 ± 131 pg/mL
  ghrelin concentration in the plasma, Change rate (24 weeks - 0 weeks): 40 ± 50 pg/mL
[1]; Whole Subjects
  ghrelin concentration in the plasma, 0 weeks (before ingestion): 186 ± 124 pg/mL
  ghrelin concentration in the plasma, 24 weeks (after ingestion): 571 ± 716 pg/mL
  ghrelin concentration in the plasma, Change rate (24 weeks - 0 weeks): 385 ± 672 pg/mL
[1]; oral, 200 mg/daily, 24 weeks, FIGS. 6a-6c, 7a-7c
  ghrelin concentrations in the plasma, effect of ingestion (in words): increased
[2]; Female
  free thyroxine concentration in the plasma, 0 weeks (before ingestion): 1.10 ± 0.19 ng/dL
  free thyroxine concentration in the plasma, 24 weeks (after ingestion): 1.13 ± 0.09 ng/dL
  free thyroxine concentration in the plasma, Change rate (24 weeks - 0 weeks): 0.03 ± 012 ng/dL
[2]; Male
  free thyroxine concentration in the plasma, 0 weeks (before ingestion): 1.15 ± 0.19 ng/dL
  free thyroxine concentration in the plasma, 24 weeks (after ingestion): 1.22 ± 0.17 ng/dL
  free thyroxine concentration in the plasma, Change rate (24 weeks - 0 weeks): 0.07 ± 0.15 ng/dL
[2]; Whole Subjects
  free thyroxine concentration in the plasma, 0 weeks (before ingestion): 1.13 ± 0.18 ng/dL
  free thyroxine concentration in the plasma, 24 weeks (after ingestion): 1.18 ± 0.14 ng/dL
  free thyroxine concentration in the plasma, Change rate (24 weeks - 0 weeks): 0.05 ± 0.13 ng/dL
[2]; oral, 200 mg/daily, 24 weeks, FIGS. 10a-10c, 11a-11c
  free thyroxine concentrations in the plasma, effect of ingestion (in words): increased
[3]; Female
  testosterone concentration in the plasma, 0 weeks (before ingestion): 0.09 ± 0.06 ng/mL
  testosterone concentration in the plasma, 24 weeks (after ingestion): 0.10 ± 0.05 ng/mL
  testosterone concentration in the plasma, Change rate (24 weeks - 0 weeks): 0.00 ± 0.03 ng/mL
[3]; Male
  testosterone concentration in the plasma, 0 weeks (before ingestion): 5.66 ± 1.54 ng/mL
  testosterone concentration in the plasma, 24 weeks (after ingestion): 5.90 ± 1.59 ng/mL
  testosterone concentration in the plasma, Change rate (24 weeks - 0 weeks): 0.25 ± 0.92 ng/mL
[3]; Whole Subjects
  testosterone concentration in the plasma, 0 weeks (before ingestion): 2.87 ± 3.11 ng/mL
  testosterone concentration in the plasma, 24 weeks (after ingestion): 3.00 ± 3.24 ng/mL
  testosterone concentration in the plasma, Change rate (24 weeks - 0 weeks): 0.13 ± 0.63 ng/mL
[3]; oral, 200 mg/daily, 24 weeks, FIGS. 16a-16c, 17a-17c
  testosterone concentrations in the plasma, effect of ingestion (in words): increased
